# Values of other authors in patent US20070281957A1, “Crystalline Forms of Levorphanol” (Mallinckrodt Inc., priority 2006, published 2007).
# What was measured:
# [1] = levorphanol free base, known physical property
# [2] = levorphanol free base, known physical property; remark: listed apart in the source
smiles,measurement,setting,value
"CN1CC[C@]23CCCC[C@H]2[C@H]1Cc1ccc(O)cc13 [Levorphanol, 3-Hydroxy-N-methylmorphinan]",Vapor pressure (at 25° C.),[1],1.04 × 10^−6 mmHg
same,Water solubility (at 25° C.),[2],1840 µg/mL
